Results as given in patent US9849130B2 (KamTek, Inc., priority 2014, dated 2017).
Converted amounts (≈) assume the structure as drawn. “And” between values parts separate entries of the source, which are not always exact repeats. Identical values can stand only once. Like-named read-outs stand apart in the source and are kept apart here.

What was measured:
[1] = test system: Staphylococcus aureus strains; experiment: MIC by microdilution in Mueller-Hinton broth against Staphylococcus aureus strains; format: cell-based; details: Staphylococcus aureus
[2] = test system: Enterococci faecium; experiment: MIC by microdilution in Mueller-Hinton broth against Enterococci faecium strains; format: cell-based, Enterococcus faecium; details: Enterococcus faecium, Mueller-Hinton broth, read-out: MIC
[3] = test system: Escherichia coli strains; experiment: MIC by microdilution in Mueller-Hinton broth against Escherichia coli strains; format: cell-based; details: for MIC: Escherichia coli, Mueller-Hinton broth, read-out: MIC
[4] = test system: Enterococcus faecalis; experiment: MIC by microdilution in Mueller-Hinton broth against Enterococcus faecalis strains; format: cell-based; details: Enterococcus faecalis
[5] = test system: Clostridium difficile (CD) strains; experiment: microbe, parasite or virus in culture; format: cell-based
[6] = test system: Bacteroides Strains; experiment: MIC by microdilution in Brucella broth against Bacteroides strains; format: cell-based, Bacteroides spp.
[7] = S. aureus NR 10129, read-out: MIC
[8] = S. aureus NR 10186, read-out: MIC
[9] = S. aureus NR 10187, read-out: MIC
[10] = S. aureus NR 10188, read-out: MIC
[11] = S. aureus NR 10189, read-out: MIC
[12] = S. aureus NR 10191, read-out: MIC
[13] = S. aureus NR 10192, read-out: MIC
[14] = S. aureus NR 10193, read-out: MIC
[15] = S. aureus NR 10194, read-out: MIC
[16] = S. aureus NR 10198, read-out: MIC
[17] = Staphylococcus aureus strain NR 10129, read-out: MIC
[18] = Staphylococcus aureus strain NR 10186, read-out: MIC
[19] = Staphylococcus aureus strain NR 10187, read-out: MIC
[20] = Staphylococcus aureus strain NR 10188, read-out: MIC
[21] = Staphylococcus aureus strain NR 10189, read-out: MIC
[22] = Staphylococcus aureus strain NR 10191, read-out: MIC
[23] = Staphylococcus aureus strain NR 10192, read-out: MIC
[24] = Staphylococcus aureus strain NR 10193, read-out: MIC
[25] = Staphylococcus aureus strain NR 10194, read-out: MIC
[26] = Staphylococcus aureus strain NR 10198, read-out: MIC
[27] = Escherichia coli strain NR 17626
[28] = Escherichia coli strain NR 17627
[29] = Escherichia coli strain NR 17633
[30] = Escherichia coli strain NR 17647
[31] = Escherichia coli strain NR 17650
[32] = Escherichia coli strain NR 17661
[33] = E. faecalis NR 31884, read-out: MIC
[34] = E. faecalis NR 31885, read-out: MIC
[35] = E. faecalis NR 31886, read-out: MIC
[36] = E. faecalis NR 31887, read-out: MIC
[37] = E. faecalis NR 31888, read-out: MIC

Compound: NCC[C@H](O)C(=O)N[C@@H]1C[C@H](N)[C@@H](O[C@H]2O[C@H](CN)[C@@H](O)[C@H](O)[C@H]2O)[C@H](O)[C@H]1O[C@H]1O[C@H](CO)[C@@H](O)[C@H](N)[C@H]1O [AMK, amikacin]
- MIC [1, 7]: 2 µg/mL (≈ 3.42 µM)
- MIC [1, 8]: 32 µg/mL (≈ 54.6 µM)
- MIC [1, 9]: > 32 µg/mL
- MIC [1, 10]: > 32 µg/mL
- MIC [1, 11]: 4 µg/mL (≈ 6.83 µM)
- MIC [1, 12]: 32 µg/mL (≈ 54.6 µM)
- MIC [1, 13]: > 32 µg/mL
- MIC [1, 14]: > 32 µg/mL
- MIC [1, 15]: 32 µg/mL (≈ 54.6 µM)
- MIC [1, 16]: > 32 µg/mL
- MIC [1, 17]: 2 µg/mL (≈ 3.42 µM)
- MIC [1, 18]: 32 µg/mL (≈ 54.6 µM)
- MIC [1, 19]: > 32 µg/mL
- MIC [1, 20]: > 32 µg/mL
- MIC [1, 21]: 4 µg/mL (≈ 6.83 µM)
- MIC [1, 22]: 32 µg/mL (≈ 54.6 µM)
- MIC [1, 23]: > 32 µg/mL
- MIC [1, 24]: > 32 µg/mL
- MIC [1, 25]: 32 µg/mL (≈ 54.6 µM)
- MIC [1, 26]: > 32 µg/mL
- MIC ([2]; E. faecium NR 31903): > 32 µg/mL
- MIC ([2]; E. faecium NR 31909): > 32 µg/mL
- MIC ([2]; E. faecium NR 31912): > 32 µg/mL
- MIC ([2]; E. faecium NR 31915): > 32 µg/mL
- MIC ([2]; E. faecium NR 31916): > 32 µg/mL
- MIC ([3]; E. coli NR 6): 4 µg/mL (≈ 6.83 µM)
- MIC ([3]; E. coli NR 8): 4 µg/mL (≈ 6.83 µM)
- MIC ([3]; E. coli NR 96): 8 µg/mL (≈ 13.7 µM)
- MIC ([3]; E. coli NR 104): 2 µg/mL (≈ 3.42 µM)
- MIC ([3]; E. coli NR 17626): 16 µg/mL (≈ 27.3 µM)
- MIC ([3]; E. coli NR 17627): 8 µg/mL (≈ 13.7 µM)
- MIC ([3]; E. coli NR 17633): 8 µg/mL (≈ 13.7 µM)
- MIC ([3]; E. coli NR 17647): 2 µg/mL (≈ 3.42 µM)
- MIC ([3]; E. coli NR 17650): 8 µg/mL (≈ 13.7 µM)
- MIC ([3]; E. coli NR 17661): 2 µg/mL (≈ 3.42 µM)
- MIC ([3]; Escherichia coli strain NR 6): 4 µg/mL (≈ 6.83 µM)
- MIC ([3]; Escherichia coli strain NR 8): 4 µg/mL (≈ 6.83 µM)
- MIC ([3]; Escherichia coli strain NR 96): 8 µg/mL (≈ 13.7 µM)
- MIC ([3]; Escherichia coli strain NR 104): 2 µg/mL (≈ 3.42 µM)
- MIC [3, 27]: 16 µg/mL (≈ 27.3 µM)
- MIC [3, 28]: 8 µg/mL (≈ 13.7 µM)
- MIC [3, 29]: 8 µg/mL (≈ 13.7 µM)
- MIC [3, 30]: 2 µg/mL (≈ 3.42 µM)
- MIC [3, 31]: 8 µg/mL (≈ 13.7 µM)
- MIC [3, 32]: 2 µg/mL (≈ 3.42 µM)
- MIC [4, 33]: > 32 µg/mL
- MIC [4, 34]: > 32 µg/mL
- MIC [4, 35]: > 32 µg/mL
- MIC [4, 36]: > 32 µg/mL
- MIC [4, 37]: > 32 µg/mL

Compound: CC1(C)S[C@@H]2[C@H](NC(=O)[C@H](N)c3ccccc3)C(=O)N2[C@H]1C(=O)O [AMP, ampicillin]
- MIC [1, 7]: > 32 µg/mL
- MIC [1, 8]: > 32 µg/mL
- MIC [1, 9]: 8 µg/mL (≈ 22.9 µM)
- MIC [1, 10]: 16 µg/mL (≈ 45.8 µM)
- MIC [1, 11]: 32 µg/mL (≈ 91.6 µM)
- MIC [1, 12]: > 32 µg/mL
- MIC [1, 13]: 32 µg/mL (≈ 91.6 µM)
- MIC [1, 14]: > 32 µg/mL
- MIC [1, 15]: 2 µg/mL (≈ 5.72 µM)
- MIC [1, 16]: > 32 µg/mL
- MIC [1, 17]: > 32 µg/mL
- MIC [1, 18]: > 32 µg/mL
- MIC [1, 19]: 8 µg/mL (≈ 22.9 µM)
- MIC [1, 20]: 16 µg/mL (≈ 45.8 µM)
- MIC [1, 21]: 32 µg/mL (≈ 91.6 µM)
- MIC [1, 22]: > 32 µg/mL
- MIC [1, 23]: 32 µg/mL (≈ 91.6 µM)
- MIC [1, 24]: > 32 µg/mL
- MIC [1, 25]: 2 µg/mL (≈ 5.72 µM)
- MIC [1, 26]: > 32 µg/mL
- MIC ([2]; E. faecium NR 31903): > 32 µg/mL
- MIC ([2]; E. faecium NR 31909): > 32 µg/mL
- MIC ([2]; E. faecium NR 31912): > 32 µg/mL
- MIC ([2]; E. faecium NR 31915): 2 µg/mL (≈ 5.72 µM)
- MIC ([2]; E. faecium NR 31916): > 32 µg/mL
- MIC ([3]; E. coli NR 6): 2 µg/mL (≈ 5.72 µM)
- MIC ([3]; E. coli NR 8): 4 µg/mL (≈ 11.4 µM)
- MIC ([3]; E. coli NR 96): 4 µg/mL (≈ 11.4 µM)
- MIC ([3]; E. coli NR 104): 4 µg/mL (≈ 11.4 µM)
- MIC ([3]; E. coli NR 17626): 4 µg/mL (≈ 11.4 µM)
- MIC ([3]; E. coli NR 17627): 4 µg/mL (≈ 11.4 µM)
- MIC ([3]; E. coli NR 17633): 4 µg/mL (≈ 11.4 µM)
- MIC ([3]; E. coli NR 17647): 4 µg/mL (≈ 11.4 µM)
- MIC ([3]; E. coli NR 17650): 4 µg/mL (≈ 11.4 µM)
- MIC ([3]; E. coli NR 17661): > 32 µg/mL
- MIC ([3]; Escherichia coli strain NR 6): 2 µg/mL (≈ 5.72 µM)
- MIC ([3]; Escherichia coli strain NR 8): 4 µg/mL (≈ 11.4 µM)
- MIC ([3]; Escherichia coli strain NR 96): 4 µg/mL (≈ 11.4 µM)
- MIC ([3]; Escherichia coli strain NR 104): 4 µg/mL (≈ 11.4 µM)
- MIC [3, 27]: 4 µg/mL (≈ 11.4 µM)
- MIC [3, 28]: 4 µg/mL (≈ 11.4 µM)
- MIC [3, 29]: 4 µg/mL (≈ 11.4 µM)
- MIC [3, 30]: 4 µg/mL (≈ 11.4 µM)
- MIC [3, 31]: 4 µg/mL (≈ 11.4 µM)
- MIC [3, 32]: > 32 µg/mL
- MIC [4, 33]: 4 µg/mL (≈ 11.4 µM)
- MIC [4, 34]: 4 µg/mL (≈ 11.4 µM)
- MIC [4, 35]: 4 µg/mL (≈ 11.4 µM)
- MIC [4, 36]: 0.5 µg/mL (≈ 1.43 µM)
- MIC [4, 37]: 4 µg/mL (≈ 11.4 µM)

Compound: O=C1C(NC2CCCCCCC2)=CC(=O)c2ncccc21 [AZQ, 6-(cyclooctylamino)-5,8-quinolinequinone]
- MIC [1, 7]: 32 µg/mL (≈ 113 µM)
- MIC [1, 8]: 16 µg/mL (≈ 56.3 µM)
- MIC [1, 9]: > 32 µg/mL
- MIC [1, 10]: 32 µg/mL (≈ 113 µM)
- MIC [1, 11]: 16 µg/mL (≈ 56.3 µM)
- MIC [1, 12]: 8 µg/mL (≈ 28.1 µM)
- MIC [1, 13]: 32 µg/mL (≈ 113 µM)
- MIC [1, 14]: 16 µg/mL (≈ 56.3 µM)
- MIC [1, 15]: 16 µg/mL (≈ 56.3 µM)
- MIC [1, 16]: 16 µg/mL (≈ 56.3 µM)
- MIC ([2]; E. faecium NR 31903): > 32 µg/mL
- MIC ([2]; E. faecium NR 31909): 32 µg/mL (≈ 113 µM)
- MIC ([2]; E. faecium NR 31912): 32 µg/mL (≈ 113 µM)
- MIC ([2]; E. faecium NR 31915): > 32 µg/mL
- MIC ([2]; E. faecium NR 31916): 16 µg/mL (≈ 56.3 µM)
- MIC Range [5]: 0.25 to 1 µg/mL
- MIC90 ([5]; Clostridioides difficile): 1 µg/mL (≈ 3.52 µM)
- activity against E. coli (in words) [3]: no activity
- MIC ([3]; E. coli NR 6): > 32 µg/mL
- MIC ([3]; E. coli NR 8): > 32 µg/mL
- MIC ([3]; E. coli NR 96): > 32 µg/mL
- MIC ([3]; E. coli NR 104): > 32 µg/mL
- MIC ([3]; E. coli NR 17626): > 32 µg/mL
- MIC ([3]; E. coli NR 17627): > 32 µg/mL
- MIC ([3]; E. coli NR 17633): > 32 µg/mL
- MIC ([3]; E. coli NR 17647): > 32 µg/mL
- MIC ([3]; E. coli NR 17650): > 32 µg/mL
- MIC ([3]; E. coli NR 17661): > 32 µg/mL
- MIC ([6]; B. caccae HM728, read-out: MIC): 2 µg/mL (≈ 7.03 µM)
- MIC ([6]; B. eggerthii HM210, read-out: MIC): 2 µg/mL (≈ 7.03 µM)
- MIC ([6]; B. fragilis HM709, read-out: MIC): 2 µg/mL (≈ 7.03 µM)
- MIC ([6]; B. fragilis HM710, read-out: MIC): 2 µg/mL (≈ 7.03 µM)
- MIC ([6]; B. fragilis HM714, read-out: MIC): 2 µg/mL (≈ 7.03 µM)
- MIC ([6]; B. ovatus HM222, read-out: MIC): 1 µg/mL (≈ 3.52 µM)
- MIC ([6]; B. stercoris HM1036, read-out: MIC): 2 µg/mL (≈ 7.03 µM)
- MIC ([6]; Bacteroides, B. spp. HM19): 4 µg/mL (≈ 14.1 µM)
- MIC ([6]; Bacteroides, B. spp. HM23, read-out: MIC): 2 µg/mL (≈ 7.03 µM)
- MIC ([6]; Bacteroides, B. spp. HM27): 1 µg/mL (≈ 3.52 µM)
- MIC ([6]; Bacteroides, B. spp. HM58): 4 µg/mL (≈ 14.1 µM)
- MIC [4, 33]: 32 µg/mL (≈ 113 µM)
- MIC [4, 34]: 32 µg/mL (≈ 113 µM)
- MIC [4, 35]: 32 µg/mL (≈ 113 µM)
- MIC [4, 36]: 16 µg/mL (≈ 56.3 µM)
- MIC [4, 37]: 32 µg/mL (≈ 113 µM)

Compound: CC1(C)CC(N=c2cc3n(-c4ccc(Cl)c(Cl)c4)c4ccccc4nc-3cc2Nc2ccc(Cl)c(Cl)c2)CC(C)(C)N1 [B4100]
- MIC [5]: 0.25 µg/mL and 0.125 µg/mL
